Measurements: patent US20100029542A1, “PROTEIN STERILISATION BY RADIATION AND ADDITION OF A STABILISING COMPOSITION” (priority 2006, published 2010)
Read-outs that look alike come from different tables or passages of the source.

Key:
Sandostatin = assay: Recovery of structural integrity of Sandostatin in dry formulations following gamma irradiation (HPLC); format: physicochemical; settings: structural integrity by HPLC, excipient:Sandostatin weight ratio 10:1, 25-40 kGy
Protocol: In each example, an aqueous solution of a protein was prepared with selected additives in an Eppendorf tube or in a glass vial. Water was removed from the formulation by drying under a stream of nitrogen at 30° C. and subsequent incubation at atmospheric pressure in the presence of a dessicant. The Eppendorf tubes or the glass vials were sealed and delivered to an industrial sterilisation service for gamma irradiation, with a dose range typical for sterile medical products. The gamma-irradiated samples were reconstituted on their return and analysed for protein activity or structural integrity. The results were compared with those achieved using control (i.e. non-irradiated) samples.
The dry samples (approx. 20 μg in an Eppendorf tube) were gamma-irradiated by an industry-standard commercial sterilising service provided by Isotron PLC (Swindon, Wilts, UK), using a Cobalt 60 gamma source at ambient temperature. The radiation dose was in the range of 25-40 kGy.
Mobile phase A was 0.1 M triethylamine adjusted to pH 2.3 with phosphoric acid. Mobile phase B was acetonitrile. The mobile phases were filtered prior to their use. The following linear gradient was used: time 0: 90% A+10% B; time 35 min: 60% A+40% B. The liquid chromatograph (Agilent 1100 series) was equipped with a 214 nm detector, guard column and a 4.6×150 mm C18 column with a granulometry of 5 μm and a porosity of 30 nm, maintained at ambient temperature. The flow rate was maintained at 1.0 mL min^−1. Injection volume was 50 μL (typically sandostatin at 200 μg mL^−1). Results were expressed as % of main peak area (i.e. area of the peak corresponding to intact sandostatin measured in the gamma irradiated sample with respect to that measured in non-irradiated sample of identical composition). A chromatogram of a standard solution of sandostatin was recorded after every 12 samples to ensure that no drift in the position of the major peak had occurred. The control measurements ruled out any ambiguity in interpreting the chromatograms.

human growth hormone = molecular target: T1, human growth hormone (Homo sapiens, UniProt P01241); assay: Recovery of structural integrity of human growth hormone in dry formulations following gamma irradiation (HPLC); format: physicochemical; settings: Table 4, prior-art antioxidants; structural integrity by HPLC; human growth hormone 2.5 mg mL^−1 prior to drying; dry; 25-40 kGy, ambient temperature
T1 construct: purchased National Institute of Biological Standards and Control; further samples on prescription from a GP surgery

[1] = cited from earlier work

T1 sequence (P01241 27-217): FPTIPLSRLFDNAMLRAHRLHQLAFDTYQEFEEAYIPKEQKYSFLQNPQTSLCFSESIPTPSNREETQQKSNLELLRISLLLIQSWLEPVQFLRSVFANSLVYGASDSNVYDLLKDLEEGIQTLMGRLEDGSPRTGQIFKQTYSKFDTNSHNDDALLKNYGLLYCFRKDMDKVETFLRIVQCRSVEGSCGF

What does the source list for `CSCC[C@H](N)C(=O)O` [Methionine]?
Enzyme activity remaining after gamma-irradiation (Sandostatin; Table 8, singlet oxygen scavengers): 91.1%; Enzyme activity remaining after gamma-irradiation (Sandostatin; Table 12, superoxide scavengers): 91.1%; Structural integrity remaining after gamma-irradiation (HPLC) (human growth hormone): 69.7%; Rate of reaction with singlet oxygen ([1]; Table 5): 1.3e+07 M⁻¹ s⁻¹; Rate of reaction with singlet oxygen ([1]; Table 7): 1.3e+07 M⁻¹ s⁻¹; Rate of reaction with singlet oxygen ([1]; Table 8): 1.3e+07 M⁻¹ s⁻¹
